{
  "source": "patent US20260337229A1",
  "about": "(Seattle Children's Hospital (d/b/a Seattle Children's …, priority 2022, published 2026)",
  "key": {"human V1a receptor": {"biological_target": "T1, human V1a receptor (Homo sapiens, UniProt P37288)", "T1 construct": "expressed in transfected cells; host or cells: CHO", "T1 sequence (P37288 whole entry)": "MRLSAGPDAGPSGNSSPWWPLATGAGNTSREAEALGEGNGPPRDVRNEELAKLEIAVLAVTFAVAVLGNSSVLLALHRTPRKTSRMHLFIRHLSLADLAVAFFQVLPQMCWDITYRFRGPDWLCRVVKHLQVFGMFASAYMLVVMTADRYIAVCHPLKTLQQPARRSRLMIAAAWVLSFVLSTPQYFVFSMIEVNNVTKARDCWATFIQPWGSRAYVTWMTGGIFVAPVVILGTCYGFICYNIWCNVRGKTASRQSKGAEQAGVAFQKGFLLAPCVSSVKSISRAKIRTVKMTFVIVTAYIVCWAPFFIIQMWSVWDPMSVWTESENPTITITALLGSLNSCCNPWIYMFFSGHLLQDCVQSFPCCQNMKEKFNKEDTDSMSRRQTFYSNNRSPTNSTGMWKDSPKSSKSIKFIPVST", "test": "Cytosolic Ca2+ mobilization agonist assay at human V1a receptor", "type": "cell-based", "settings": "stably transfected CHO cells; read-out: hV1aR, EC50", "protocol": "The cells were suspended in DMEM buffer (Invitrogen, Carlsbad, CA) complemented with 0.1% FCSd, then distributed in microplates at a density of 4.5×10^4 cells/well. The fluorescent probe (Fluo4 Direct, Invitrogen, Carlsbad, CA) mixed with probenicid in HBSS buffer (Invitrogen, Carlsbad, CA) complemented with 20 mM HEPES (Invitrogen, Carlsbad, CA) (pH 7.4) was then added into each well and equilibrated with the cells for 60 min at 37° C. then 15 min at 22° C. The assay plates were positioned in a microplate reader (CellLux, PerkinElmer) followed by the addition of the test compound ASK2131, reference agonist or HBSS buffer (basal control), and the measurements of changes in fluorescence intensity which varies proportionally to the free cytosolic Ca^2+ ion concentration. For stimulated control measurements, AVP at 1 μM was added in separate assay wells. The results were expressed as a percent of the control response to 1 μM AVP. The standard reference agonist was AVP, which was tested in each experiment at several concentrations to generate a concentration-response curve from which its EC50 value was calculated."}, "human V2 receptor": {"biological_target": "T2, human V2 receptor (Homo sapiens, UniProt P30518)", "T2 construct": "expressed in transfected cells; host or cells: CHO", "T2 sequence (P30518 whole entry)": "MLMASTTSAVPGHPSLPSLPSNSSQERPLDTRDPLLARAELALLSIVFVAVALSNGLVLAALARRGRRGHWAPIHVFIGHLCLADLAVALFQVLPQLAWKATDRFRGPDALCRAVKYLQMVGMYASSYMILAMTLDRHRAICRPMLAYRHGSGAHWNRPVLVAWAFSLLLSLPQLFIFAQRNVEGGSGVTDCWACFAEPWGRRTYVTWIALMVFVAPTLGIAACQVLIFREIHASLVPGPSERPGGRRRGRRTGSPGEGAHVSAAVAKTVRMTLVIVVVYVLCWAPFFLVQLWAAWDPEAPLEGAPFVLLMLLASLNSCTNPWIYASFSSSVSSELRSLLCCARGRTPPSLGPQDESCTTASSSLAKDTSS", "test": "cAMP production (HTRF) agonist assay at human V2 receptor", "type": "cell-based", "settings": "stably transfected CHO cells, read-out: hV2R, EC50", "protocol": "In Vitro Functional Assay measuring V2R Evaluation of the agonist activity of ASK2131 at the human V2 receptor expressed in stably transfected CHO cells was conducted by measuring its effects on cAMP production using the HTRF detection method. The cells were suspended in HBSS buffer (Invitrogen, Carsbad, CA) complemented with 20 mM HEPES (pH 7.4), 0.010% BSA and 500 μM IBMX, then distributed in microplates at a density of […] cells/well and incubated for 30 min at room temperature in the absence (control) or presence of the test compound or the reference agonist.\nFor stimulated control measurement, separate assay wells contained 1 nM AVP. Following incubation, the cells were lysed, and the fluorescence acceptor (D2-labeled cAMP) and fluorescence donor (anti-cAMP antibody labeled with europium cryptate) were added. After 60 min at room temperature, the fluorescence transfer was measured at γ ex=337 nm and γ em=620 and 665 nm using a microplate reader (Envision, Perkin Elmer). The cAMP concentration was determined by dividing the signal measured at 665 nm by that measured at 620 nm (ratio).\nThe results were expressed as a percent of the control response to 1 nM AVP. The standard reference agonist was AVP, which was tested in each experiment at several concentrations to generate a concentration-response curve from which its EC50 value was calculated."}, "[1]": {"test": "22-day long-term study in DIO rats (body weight, food and water intake)", "type": "in vivo, male Sprague Dawley rats", "settings": "in words", "from_the_text": "For studies utilizing a DIO rat model, male Sprague Dawley rats (CD-IGS rats, strain 001; approximately 4 weeks of age; 51-75 g) purchased from Charles River Laboratories (Wilmington, MA, USA). These rats were fed a diet of 60% calories from fat (Formula: D12492; Research Diets, Inc., New Brunswick, NJ, USA; 5.21 kcal/g) for 4.5 to 6 months prior to the start of the study to induce obesity. For studies utilizing lean rats, male Sprague Dawley rats (CD-IGS rats, strain 001; 226-250 g) purchased from Charles River Laboratories (Wilmington, MA, USA). All rats had ad libitum access to food and water and were kept on a 12 h light/12 h dark cycle. Animals were individually housed in a temperature (22±1° C.) and humidity (57±4%) controlled room. All body weight measurements were taken just prior to the start of the dark cycle.\n(§1) Male Sprague Dawley rats were fed 60% HF diet (D12492; Research Diets, Inc; New Brunswick, NJ; 5.21 kcal/g) for 16 weeks prior to the start of the study. Rats were then singly house in BioDAQ cages (Research Diets, Inc.; New Brunswick, NJ) and allowed to acclimate to their new environment for 10 days. Baseline measures of body weight, food intake and water intake were taken for one week to balance the groups and create feeding pairs. Each group (n=6 animals/group) averaged 714.47±81.6 g at baseline (Table 3).\n(§2) Effects of ASK2131 were compared to a vehicle-treated group, OXT-treated group, as well as a pair-fed control group. Three days of baseline measures were taken before subcutaneous treatment administration began on day 4 of the study. Assessments were made to body weight, food intake and water intake. ASK2131 was administered at 50 nmol/kg throughout the entire study period. […] OXT-treated animals were started at 50 nmol/kg dose for two days, followed by 150 nmol/kg, then 300 nmol/kg, until ending at 600 nmol/kg for the remainder of the study."}, "[2]": {"test": "Pharmacokinetics, iv, rat", "type": "in vivo"}, "[3]": {"test": "Blood parameters after 22-day treatment of DIO rats", "type": "in vivo, male Sprague Dawley rats", "from_the_text": "as §1, §2\nCardiac puncture was used to collect blood for analysis 2 h post final injection. Commercially available enzyme-linked immunosorbent assays (ELISA) were used for quantitative assessment of leptin (cat. #EZRL-83K; MilliporeSigma, Burlington, MA, USA), insulin (cat. #EZRMI-13K; MilliporeSigma, Burlington, MA, USA), and adiponectin (cat. #EZRAPD-62K MilliporeSigma, Burlington, MA, USA). Serum samples were diluted 1:500 for the adiponectin ELISA using the sample diluent provided with the kit. All ELISAs were completed following the manufacturers recommendations. Levels of glucose, cholesterol (total, HDL, and calculated LDL), triglycerides, ALT, and AST were determined in the serum on a Modular P chemistry analyzer (Roche Diagnostics, Risch-Rotkreuz, Switzerland) by the University of Washington Nutrition and Obesity Research Center's Analytic Core (Seattle, WA, USA)."}, "hOXTR": {"biological_target": "T3, hOXTR (Homo sapiens, UniProt P30559)", "T3 construct": "expressed in transfected cells; host or cells: CHO (hOTR NFAT bLac)", "T3 sequence (P30559 1-389)": "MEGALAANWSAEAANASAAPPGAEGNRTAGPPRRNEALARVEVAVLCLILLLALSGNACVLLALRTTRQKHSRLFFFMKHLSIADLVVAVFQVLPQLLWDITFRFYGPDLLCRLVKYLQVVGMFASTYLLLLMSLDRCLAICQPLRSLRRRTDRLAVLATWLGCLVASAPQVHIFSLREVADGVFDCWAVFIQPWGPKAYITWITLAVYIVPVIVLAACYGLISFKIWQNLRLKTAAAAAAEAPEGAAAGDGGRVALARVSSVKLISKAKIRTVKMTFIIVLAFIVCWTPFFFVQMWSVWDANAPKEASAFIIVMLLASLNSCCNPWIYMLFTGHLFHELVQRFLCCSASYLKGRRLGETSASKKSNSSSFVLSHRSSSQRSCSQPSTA", "test": "Ca2+ flux fluorometric imaging plate reader assay at OXTR", "type": "cell-based", "protocol": "In a typical experimental protocol, stably transfected Chinese hamster ovary (CHO) hOTR NFAT bLac cells were plated at a density of 10,000 cells/well in a 384-well plate in growth medium (Dulbecco's modified Eagle's medium+Glutamax (Thermo Fisher Scientific, Waltham, MA), 10% dialyzed fetal bovine serum). The next day calcium-sensitive, fluo-4 dye (Invitrogen, Carlsbad, CA) and probenecid (Invitrogen; 2.5 mM) was dissolved in 20 ml warm dye loading buffer (Hanks' balanced salt solution with calcium and magnesium, 20 mM Hepes, pH 7.4) and added to each well. Plates were incubated for 60-120 minutes in a 37° C. cell incubator to allow cells to uptake the dye. […] After dye-loading, the cell plates were placed on the fluorometric imaging plate reader. A total of […] of test compound was added to the […] of dye on the cells, and intracellular Ca^2+ was monitored for 90 seconds. Intracellular Ca^2+ concentrations were calculated as the maximum increase over basal levels. Responses were normalized to control responses. Data were analyzed by curve fitting."}, "[4]": {"settings": "serum 2 h post final injection, 22 days sc, mean ± SEM, OXT n=4"}},
  "note": "Read-outs that look alike come from different tables or passages of the source. Starred links: 1 amine or outer side, 2 acyl side, 3 side chain; linkers in the order of their positions; H or OH if unused. Positions of bridges follow the written chain, without caps; N, C: chain ends. Non-standard residues stand in square brackets, D forms with d. Residues, ends and D or L forms follow the SMILES beside them. Groups on a side chain read outwards from the residue. *: point of attachment. PEG8 = NCCOCCOCCOCCOCCOCCOCCOCCOCCC(=O)O; Palmitoyl = CCCCCCCCCCCCCCCC(=O)*; hCys = N[C@@H](CCS)C(=O)O; X1 = O=C(CC[*:2])[*:1]",
  "data": [
    {"smiles": "CCCCCCCCCCCCCCCC(=O)NCCOCCOCCOCCOCCOCCOCCOCCOCCC(=O)NCCCC[C@H](NC(=O)CNC(=O)[C@@H]1CCSCCC(=O)N[C@@H](Cc2ccc(O)cc2)C(=O)N[C@@H]([C@@H](C)CC)C(=O)N[C@@H](CCC(N)=O)C(=O)N[C@@H](CC(N)=O)C(=O)N1)C(=O)NCC(N)=O", "note": "[ASK2131] (YIQN[hCys]GK([PEG8-Palmitoyl])G-NH2; linker N-5 via X1)", "values": [
      {"measurement": "EC50", "setting": "human V1a receptor", "result": "> 1000", "unit": "nM"},
      {"measurement": "EC50", "setting": "human V2 receptor", "result": 0.36, "unit": "nM"},
      {"measurement": "adverse effects caused by the activation of V2R", "setting": "[1]", "result": "No adverse effects caused by the activation of V2R were observed"},
      {"measurement": "T1/2", "setting": "[2]", "result": 2.30, "unit": "h"},
      {"measurement": "Tmax", "setting": "[2]", "result": 4.00, "unit": "h"},
      {"measurement": "free Cmax", "setting": "[2]; 4 hours post-dose", "result": 0.5, "unit": "nM"},
      {"measurement": "half-life", "setting": "[2]; plasma", "result": 138, "unit": "min"},
      {"measurement": "clearance", "setting": "[2]; plasma, read-out: CLplasma", "result": 1.2, "unit": "mL/min/kg"},
      {"measurement": "Tmax", "setting": "[2]; plasma, read-out: Tmax", "result": 4, "unit": "h"},
      {"measurement": "Vd", "setting": "[2]; plasma, read-out: Vd, steady-state volume of distribution", "result": 0.8, "unit": "L/kg"},
      {"measurement": "Cmax at 4 h", "setting": "[2]; total plasma concentration, 4 hours post-dose", "result": 276, "unit": "nM"},
      {"measurement": "glucose, triglyceride, ALT, and AST levels", "setting": "[3]; 22 days, in words", "result": "No significant differences"},
      {"measurement": "ALT", "setting": "[3]; [4]", "result": "26 ± 2", "unit": "U/L"},
      {"measurement": "AST", "setting": "[3]; [4]", "result": "73 ± 8", "unit": "U/L"},
      {"measurement": "EC50", "setting": "hOXTR", "result": 1.1, "unit": "nM"},
      {"measurement": "Ratio OXTR/V2R/", "setting": "hOXTR; ratio of EC50 values", "result": 3.06}
    ]}
  ]
}
